In EP2039683B1, “Vasculostatic agents and methods of use thereof” (Targegen, Inc., priority 2002, dated 2004):

Legend:
histamine as agonist = assay: Miles assay, histamine as agonist; type: in vivo, Sprague-Dawley rats; conditions: 1.5 mg/kg; histamine 10 µg/injection site; vehicle 12
Method: Sprague-Dawley rats were first injected IV with vehicle alone or test agent, followed by IV injection of Evans blue dye, followed by intradermal injections of saline and VEGF (200 ng/injection site) along both shaved flanks.
The ability of test agents to influence edema induced by agonists other than VEGF was also tested.
The ability of test agent to influence vascular edema was tested as above, except that the ability to block edema was tested using either VEGF or histamine as the agonist (200 ng and 10 µg/injection site, respectively).

[1] = Cerebral stroke model, permanent middle cerebral artery occlusion; type: in vivo, mice; conditions: 1 mg/kg BW IV 60 min after ligation; for % Infarct reduction: versus vehicle of the same study; for Infarct area in mm^3 (mean ± SEM): twenty four hours later
Method: Cerebral strokes were created in mice by permanent ligation of the middle cerebral artery using a cauterizing tool, followed 60 min later by IV injection of either vehicle alone (50% PEG400 in water) or test agents (at 1 mg/kg BW). Twenty four hours later, brains were sectioned and stained using triphenyltetrazolium chloride to delineate viable from infarcted tissue.

angiogenesis = assay: Matrigel plug angiogenesis model, FITC-lectin quantification; type: in vivo, Athymic WeHi (nu/nu) mice; conditions: 10 mg/kg intraperitoneally bid for four days; matrigel with 400 ng/ml bFGF or VEGF
Method: FIGURE 13 (omitted) and 14 (omitted) illustrate the effects of invention compounds for their capacity to inhibit angiogenesis in vivo. […] Tumor extracellular matrix infused with the 160 ng of the described growth factors were injected subcutaneously in a Balb/C mouse. The described invention compound was injected daily at the described concentration for 5 days. After 5 days the animals were sacrificed and angiogenesis quantified based on the binding of fluorescently labeled, endothelium specific FITC-lectin. In the graph, compound A is 6,7-bis(4-hydroxyphenyl)-pteridin-4-ylamine sulfate salt.
Referring to FIGURES 13 (omitted) and 14 (omitted), a murine model of angiogenesis was used to screen compounds for their capacity to inhibit angiogenesis. […] In the graph, compound A is 6,7-bis(4-hydroxyphenyl)-pteridin-4-ylamine sulfate salt. Athymic WeHi (nu/nu) mice were first injected with 400; jls of an ice- cold tumor-derived extracellular matrix substrate, matrigel (Becton-Dickinson) infused with 400 ng/ml of bFGF or VEGF (R & D Systems) which rapidly solidifies into a subdermal plug at body temperature. […] Twenty minutes after injection of the lectin, mice were euthanized, matrigel plugs were then extracted, solublized in PBS with mechanical grinding and the fluorescent content of individual plugs was quantified. […]

CTLL2 = assay: IL-2 dependent T-cell proliferation, XTT assay; type: cell-based, mouse; conditions: 96 hours, 50 pg human recombinant IL-2
IL-2 induced VLS = assay: IL-2 induced vascular leak syndrome, organ wet/dry weight; conditions: compound D in the 1 mg/kg range, compound E in the 0.1 mg/kg range; for reduction of VLS in the heart / reduction of VLS in the spleen: 9 injections of murine IL-2 and/or compound over 4 days
Description: BalbC mice were given 9 injections of the indicated dose of murine IL-2 (in this example formulated in saline with 5% bovine serum albumin) and/or invention compounds over a period of 4 days. Animals were then sacrificed followed by collection, blotting and weighing (wet weight) of heart, lungs, and spleen.
BalbC mice were given 9 injections of the indicated dose of murine IL-2 and/or invention compounds over a period of 4 days. Animals were then sacrificed followed by collection, blotting and weighing (wet weight) of heart, lungs, and spleen.

[2] = Oleic acid induced ARDS lung edema, wet/dry weight; type: in vivo, NIH Swiss mice; conditions: 0.5 mg/kg range; 1.5 mg/kg Oleic Acid intraperitoneal, lungs collected after four hours
Method: FIGURE 12 (omitted) illustrates the effects of invention compounds for their capacity to inhibit edema associated with Acute Respiratory Distress Syndrome (ARDS). NIH Swiss mice were given an intraperitoneal injection of 1.5 mg/kg Oleic Acid of (in this example formulated in saline) and/or invention compounds.
NIH Swiss mice were given an intraperitoneal injection of 1.5 mg/kg Oleic Acid of (in this example formulated in saline) and/or invention compounds.

## O=C(Nc1cc2ccccc2[nH]1)c1cc(O)c(O)c(O)c1 [3,4,5-Trihydroxy-N-(1H-indol-2-yl)-benzamide]
Histamine as agonist
  Score with histamine as agonist (scale of 0-12): 7

## O=C(Nc1ccccc1-c1cc2ccccc2[nH]1)c1cc(O)c(O)c(O)c1 [3,4,5-Trihydroxy-N-[2-(1H-indol-2-yl)-phenyl]-benzamide]
Histamine as agonist
  Score with histamine as agonist (scale of 0-12): 7

## Oc1ncnc2nc(-c3ccccc3)c(-c3ccccc3)nc12 [6,7-Diphenyl-pteridin-4-ol]
Histamine as agonist
  Score with histamine as agonist (scale of 0-12): 4

## Cc1ccc(-c2nn(C(C)(C)C)c3ncnc(N)c23)cc1 [PP1, reference compound]
[1]
  % Infarct reduction: Not significant

## CN(C)S(=O)(=O)c1ccc2c(c1)/C(=C/c1cc3c([nH]1)CCCC3)C(=O)N2 [SU6656, reference compound]
[1]
  Infarct area in mm^3 (mean ± SEM): 24.3 ± 5.3 mm^3
  % Infarct reduction: Not significant

## Nc1ncnc2nc(-c3ccc(O)cc3)c(-c3ccc(O)cc3)nc12.O=S(=O)(O)O [compound A, 6,7-bis(4-hydroxyphenyl)-pteridin-4-ylamine sulfate salt]
angiogenesis
  inhibition of angiogenesis in vivo: successfully inhibited angiogenesis in vivo

## O=C(O)c1ccccc1C(=O)Nc1ccccc1-c1cc2ccccc2[nH]1 [compound D]
[1]
  Infarct area in mm^3 (mean ± SEM): 15.6 ± 5.16 mm^3
  % Infarct reduction: 63%
CTLL2; in the 1 mg/kg range as printed
  impact on IL-2 induced T-cell proliferation: no significant impact
IL-2 induced VLS
  reduction of VLS in the heart: > 100%
  reduction of VLS in the spleen: > 100%
  reducing VLS in vivo: 80-100%

## Nc1nc(N)c2nc(-c3cccc(O)c3)c(-c3cccc(O)c3)nc2n1.O=S(=O)(O)O [compound E]
CTLL2; in the therapeutic range (< 1pM)
  impact on IL-2 induced T-cell proliferation: no significant impact
IL-2 induced VLS
  reduction of VLS in the heart: > 100%
  reduction of VLS in the spleen: > 100%
  reducing VLS in vivo: 80-100%

## Nc1ncnc2nc(-c3ccc(O)c(O)c3)c(-c3ccc(O)c(O)c3)nc12 [compound F, 4-[4-amino-6-(3,4-dihydroxyphenyl)pteridin-7-yl]benzene-1,2-diol]
[2]
  reduction of ARDS-induced edema: > 100%
